Columns and labels:
[1] = target: T1, cloned hTRPM8 channel (human TRPM8 gene, expressed in CHO cells) (Homo sapiens, UniProt Q7Z2W7); test: agonist activity on cloned hTRPM8 channel, Fluo-8 calcium kit, FLIPR; assay type: cell-based; details: for Potency Relative to I-menthol / EC50: TRPM8 receptor assay; for EC50: read-out: EC50 μM (95% C, L.)
T1 construct: host or cells: CHO cells
Experimental: The in vitro effects of test articles were evaluated on cloned hTRPM8 channel (encoded by the human TRPM8 gene, expressed in CHO cells) using a Fluo-8 calcium kit and a Fluorescence Imaging Plate Reader (FLIPR^TETRA™) instrument. […] The total number of carbons in these trialkylphosphine oxides ranged from 12 to 15.
To further examine solvent-receptor interactions, stock solutions of 1-7 [1-(Diisopropyl-phosphinoyl)-heptane] were prepared in dimethyl sulfoxide (DMSO) or DMSO containing 10% or 30% by volume of the three isomers of 1,2-propanediol, (R/S-PD, R-PD, and S-PD) and stored frozen. Six dose levels were tested ranging from 0.003 to 3 μM. Ten μl of the test article solution were added to 40 μl of cells in HBPS in glass-lined 384-well compound plates, and placed into the FLIPR instrument for the fluorescence readout (Molecular Devices Corporation, Union City, Calif.).

[2] = test system: philtrum skin; test: philtrum skin cooling bioassay (subjective coolness rating 0-3); assay type: in vivo, human; details: 49% distilled water, 1% ethanol
Text: The term “alcoholic solvent” refers to a chemical with one to four carbons with at least one hydroxyl group attached to a carbon atom. A reliable place for topical application is the skin above the upper lip (above the vermilion border of the lips), on the philtrum, lateral to the philtrum until the nasolabial folds, and on the lower nostrils (subnasale). This part of the face is known to be densely innervated with cold receptors, second only to the surfaces of the eyeball and anogenitalia. Tingling, cool and cold sensations from the skin may be experienced and rated for time of onset and intensity.
The intervals for recording sensations are 5 to 10 minutes, until two successive zeros are obtained. The results (shown in the Figures) are averaged values of 4 to 6 separate trials in the same individual. The data are plotted using SigmaPlot (Systat Software, Point Richmond, Calif.) and a smoothing function with a negative exponential was used for analysis and statistical fit of the results. The onset of drug action is taken as the time to reach 2 units of coolness intensity, and offset of drug action is the time when coolness intensity drops below 2, after previously surpassing 2 units. […] The duration of cooling action is defined as the offset time minus the onset time and the primary index of effect. As described in Examples, the test compounds were tested at 2 to 10 mg/mL of vehicle.
For assays on the skin, the cooling agent(s) was dissolved in the alcoholic solvent to yield a 2, 2.5, 3, 5 or 10 mg/mL solution. Using a cotton-tipped applicator (e.g. Q-tips®) 0.10 to 0.25 mL of the test solution was applied to the skin above the upper lip, on the philtrum, and lateral to the philtrum up to the nasolabial folds, and the onset and duration of cooling sensations noted. […] The interval for recording sensations was at 5 to 10 minute intervals, until at least two successive zeros were obtained. The results were averaged values of 3 to 6 separate trials in the same individual. The “onset” is the time taken to reach a coolness intensity value of 2. […] The “off-set” is when the coolness intensity drops below 2, and the duration is the time of off-set minus the time of onset. The area under the curve (AUC) gives an estimate of the intensity and duration of drug action and can be obtained from the plotted data using SigmaPlot (Systat Software, Point Richmond, Calif.). The AUC unit is the product of cooling intensity x min.

[3] = test system: itchy scalp, seborrheic dermatitis; test: topical application to itchy scalp in seborrheic dermatitis, one subject; assay type: in vivo, human; details: 10 mg/mL in 12% (S)-1,2-propanediol, 37% (R)-1,2-propanediol, 1% ethanol, 50% water
Experimental: A subject with severe seborrheic dermatitis complained of an itchy scalp which was not resolved with anti-dandruff shampoos. […] The delivery was made using a 20 mL reservoir bottle capped with a Yorker spout. They remarked that routine application of the solution on an “as needed basis” stopped the itch for 6 to 8 hours and repeat applications for one week allowed their scalp to feel refreshed and normal. They proposed to pay for a continued supply of the solution.

[4] = test system: periorbital skin and skin above the cheekbone; test: cosmetic wipe over periorbital skin and skin above the cheekbone, six female subjects; assay type: in vivo, human; details: 10 mg/mL in water (50%), 10% (S)-, 40% (R)-1,2-propanediol
Experimental: Six female subjects working at a cosmetics company volunteered to try topical applications of 1-7 and/or 1-8, formulated at 10 mg/mL in water (50%) and 10% (S)-1,2-propanediol, 40% (R)-1,2-propanediol wt/wt. The liquid was put on a cotton square and wiped over the periorbital skin and the skin above the cheekbone. All the subjects remarked on a refreshing coolness on the skin at the sites of application within 2 min after application. There was a “wow” effect, that was considered pleasant and stimulating. […] Four of the six subjects said they felt more “awake and energetic.”

[5] = test system: axillary skin lesion of plaque psoriasis (itch, burning); test: topical application to axillary plaque psoriasis lesion, one subject; assay type: in vivo, human; details: 2% in 1% ethanol-99% (R)-1,2-propanediol, swab stick, first application at night
Text: A person with an 8-year history of plaque psoriasis complained of an axillary skin lesion that itched, had burning sensations, and kept them awake at night. Their condition was severe and chronic. Their parent complained that they had to vacuum their bedroom every day in order to remove flaking skin debris. […] They volunteered to try CPS-148, 2% dissolved in 1% ethanol-99% (R)-1,2-propanediol, and was given instructions on how to apply the solution to their site of itch with a swab stick (Q-tip™). They claimed after the first time of application at night the burning sensations and itch disappeared within 5 to 10 min and they were able to have a good nights sleep. They continued to use the solution on an “as-needed basis” for one month and claimed that they slept much better than before.

T1 sequence (Q7Z2W7 whole entry): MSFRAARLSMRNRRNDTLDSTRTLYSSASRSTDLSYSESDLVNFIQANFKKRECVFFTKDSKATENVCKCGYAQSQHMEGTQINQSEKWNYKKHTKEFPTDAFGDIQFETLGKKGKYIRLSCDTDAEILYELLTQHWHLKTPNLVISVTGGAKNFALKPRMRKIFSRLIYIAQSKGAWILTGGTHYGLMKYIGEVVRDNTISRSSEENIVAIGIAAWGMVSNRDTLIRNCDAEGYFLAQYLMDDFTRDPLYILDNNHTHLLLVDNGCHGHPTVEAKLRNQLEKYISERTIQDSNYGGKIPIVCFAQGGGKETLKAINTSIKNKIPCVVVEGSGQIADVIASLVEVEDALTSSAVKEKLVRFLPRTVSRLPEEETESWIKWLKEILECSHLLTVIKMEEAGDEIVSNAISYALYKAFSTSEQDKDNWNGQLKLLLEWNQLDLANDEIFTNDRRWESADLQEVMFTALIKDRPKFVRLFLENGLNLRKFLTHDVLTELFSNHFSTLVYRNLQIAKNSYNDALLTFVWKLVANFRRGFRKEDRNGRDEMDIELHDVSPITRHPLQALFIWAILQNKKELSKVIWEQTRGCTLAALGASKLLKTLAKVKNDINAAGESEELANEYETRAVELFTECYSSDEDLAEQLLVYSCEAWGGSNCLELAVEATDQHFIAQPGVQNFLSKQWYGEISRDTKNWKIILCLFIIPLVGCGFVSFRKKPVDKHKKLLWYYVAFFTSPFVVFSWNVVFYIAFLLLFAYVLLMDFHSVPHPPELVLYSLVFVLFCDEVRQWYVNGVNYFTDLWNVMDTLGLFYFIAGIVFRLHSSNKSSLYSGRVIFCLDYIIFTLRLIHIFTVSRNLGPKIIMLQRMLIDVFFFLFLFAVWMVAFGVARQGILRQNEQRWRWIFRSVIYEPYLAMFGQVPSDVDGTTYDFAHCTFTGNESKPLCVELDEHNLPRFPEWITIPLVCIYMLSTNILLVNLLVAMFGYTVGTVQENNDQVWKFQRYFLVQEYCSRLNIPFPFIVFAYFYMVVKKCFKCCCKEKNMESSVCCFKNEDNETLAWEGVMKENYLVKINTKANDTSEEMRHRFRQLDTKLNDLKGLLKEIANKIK

Compound	Potency Relative to I-menthol [1]	EC50 [1]	Ratio of AUC 75/25% R/S to 25/75% R/S (fold increase in cooling activity) [2]	duration for which itch was stopped [3]	irritation or redness on the skin after applications [4]	time facial skin felt cool and dry after application ([4]; all subjects)	agonism at the TRPM8 ion channel [1]	time to disappearance of burning sensations and itch [5]
CCCCCCCCP(=O)(C(C)C)C(C)C [1-8]	5.4	0.7 µM	1.5	6 to 8 h	no irritation or redness	at least one hour		
CCCCCCCP(=O)(C(C)CC)C(C)CC (centres unmarked) [CPS-148, 1-(Di-sec-butyl-phosphinoyl)-heptane]	3.4	1.1 µM	2.3				activates TRPM8	5 to 10 min
